Reference: patent publication US12662465B2, “EGFR inhibitors” (Blueprint Medicines Corporation, priority 2021, dated 2026)
Like-named read-outs stand apart in the source and are kept apart here.

Experiments:
[1] = target: T1, EGFR L858R (Homo sapiens, UniProt P00533, L858R); assay: Biochemical EGFR inhibition assay (Caliper mobility shift), EGFR L858R; details: read-out: Enz EGFR_L858R IC50
T1 construct: purchased SignalChem E10-122BG

[2] = target: T2, EGFR (d746-750) (Homo sapiens, UniProt P00533, DEL746-750); assay: Biochemical EGFR inhibition assay (Caliper mobility shift), EGFR (d746-750); details: read-out: Enz EGFR_Exon19-del746-750 IC50
T2 construct: purchased SignalChem E10-122JG

[3] = target: intracellular phosphorylation of EGFR (Tyr1068) in PC-9 cells (Ex19Del) (Homo sapiens, UniProt P00533, DEL746-750); assay: PC-9 pEGFR AlphaLISA assay; type: cell-based; details: 4 hours compound incubation, read-out: Ext pEGFR_PC-9 Ex19Del IC50
[4] = 1.0 mM ATP or ATP Km, room temperature (25° C.)

Sequence of intracellular phosphorylation of EGFR (Tyr1068) in PC-9 cells (Ex19Del) (P00533 with tags, fused parts or gaps DEL746-750): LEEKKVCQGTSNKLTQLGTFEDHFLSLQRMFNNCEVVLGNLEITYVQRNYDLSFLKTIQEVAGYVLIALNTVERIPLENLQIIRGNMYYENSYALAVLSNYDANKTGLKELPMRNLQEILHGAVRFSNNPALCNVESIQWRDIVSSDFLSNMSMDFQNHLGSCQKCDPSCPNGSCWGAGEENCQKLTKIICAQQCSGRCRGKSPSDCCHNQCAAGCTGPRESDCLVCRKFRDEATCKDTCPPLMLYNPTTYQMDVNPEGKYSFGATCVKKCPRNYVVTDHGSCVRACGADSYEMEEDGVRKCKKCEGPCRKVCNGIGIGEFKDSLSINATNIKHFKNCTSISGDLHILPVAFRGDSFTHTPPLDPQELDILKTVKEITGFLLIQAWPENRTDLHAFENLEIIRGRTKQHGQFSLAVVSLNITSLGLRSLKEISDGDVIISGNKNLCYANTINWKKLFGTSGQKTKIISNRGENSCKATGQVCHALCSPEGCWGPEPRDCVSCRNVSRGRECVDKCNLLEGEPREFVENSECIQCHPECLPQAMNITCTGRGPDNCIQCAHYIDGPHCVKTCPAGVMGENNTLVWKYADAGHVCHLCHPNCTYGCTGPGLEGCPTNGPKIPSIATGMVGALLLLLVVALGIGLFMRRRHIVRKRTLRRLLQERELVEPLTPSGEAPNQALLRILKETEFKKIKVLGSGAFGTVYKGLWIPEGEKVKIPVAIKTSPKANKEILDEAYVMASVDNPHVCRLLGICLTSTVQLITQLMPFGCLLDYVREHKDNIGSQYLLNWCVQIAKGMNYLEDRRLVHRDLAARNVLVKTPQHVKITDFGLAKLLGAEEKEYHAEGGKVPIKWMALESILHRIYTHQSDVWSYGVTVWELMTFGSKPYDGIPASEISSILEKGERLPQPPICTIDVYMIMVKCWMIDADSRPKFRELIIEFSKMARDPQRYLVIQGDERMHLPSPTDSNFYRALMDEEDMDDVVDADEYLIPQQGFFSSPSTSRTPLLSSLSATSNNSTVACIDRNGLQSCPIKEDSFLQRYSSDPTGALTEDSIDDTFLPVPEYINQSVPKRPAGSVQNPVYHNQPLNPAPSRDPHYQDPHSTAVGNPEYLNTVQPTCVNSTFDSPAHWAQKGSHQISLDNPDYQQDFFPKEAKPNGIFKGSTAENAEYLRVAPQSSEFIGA
T1 sequence (P00533 25-1210 L858R): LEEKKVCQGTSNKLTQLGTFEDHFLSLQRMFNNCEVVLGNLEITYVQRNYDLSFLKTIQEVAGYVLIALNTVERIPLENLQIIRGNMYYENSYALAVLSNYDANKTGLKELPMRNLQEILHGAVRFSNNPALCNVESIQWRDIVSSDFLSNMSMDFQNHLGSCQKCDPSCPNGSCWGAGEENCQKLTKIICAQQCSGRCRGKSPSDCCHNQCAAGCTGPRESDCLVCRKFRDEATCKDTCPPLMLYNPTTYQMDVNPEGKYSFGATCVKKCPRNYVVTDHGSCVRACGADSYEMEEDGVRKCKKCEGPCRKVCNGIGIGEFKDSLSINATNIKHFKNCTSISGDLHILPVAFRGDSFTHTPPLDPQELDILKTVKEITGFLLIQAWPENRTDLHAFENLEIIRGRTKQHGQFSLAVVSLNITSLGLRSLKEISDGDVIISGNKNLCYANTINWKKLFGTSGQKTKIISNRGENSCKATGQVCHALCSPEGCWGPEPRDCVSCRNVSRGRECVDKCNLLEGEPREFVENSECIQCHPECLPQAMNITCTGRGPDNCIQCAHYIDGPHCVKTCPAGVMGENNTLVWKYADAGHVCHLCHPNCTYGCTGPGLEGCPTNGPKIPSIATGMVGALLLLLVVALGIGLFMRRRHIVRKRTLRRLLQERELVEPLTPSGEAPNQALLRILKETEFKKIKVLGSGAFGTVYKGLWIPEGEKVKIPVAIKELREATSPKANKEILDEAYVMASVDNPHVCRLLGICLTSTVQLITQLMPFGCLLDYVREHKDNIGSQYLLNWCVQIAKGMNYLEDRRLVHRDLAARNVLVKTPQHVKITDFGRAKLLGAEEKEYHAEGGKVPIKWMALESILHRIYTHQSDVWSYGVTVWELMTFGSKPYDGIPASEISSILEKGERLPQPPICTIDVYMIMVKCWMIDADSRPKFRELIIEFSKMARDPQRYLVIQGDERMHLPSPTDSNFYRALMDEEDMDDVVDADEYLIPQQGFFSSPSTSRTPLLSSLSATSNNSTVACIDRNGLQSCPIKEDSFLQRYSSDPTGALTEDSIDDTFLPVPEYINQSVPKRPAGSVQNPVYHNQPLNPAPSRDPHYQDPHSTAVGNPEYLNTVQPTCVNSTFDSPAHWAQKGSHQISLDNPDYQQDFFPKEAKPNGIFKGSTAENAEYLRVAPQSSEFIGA
T2 sequence (P00533 with tags, fused parts or gaps DEL746-750 limits assumed): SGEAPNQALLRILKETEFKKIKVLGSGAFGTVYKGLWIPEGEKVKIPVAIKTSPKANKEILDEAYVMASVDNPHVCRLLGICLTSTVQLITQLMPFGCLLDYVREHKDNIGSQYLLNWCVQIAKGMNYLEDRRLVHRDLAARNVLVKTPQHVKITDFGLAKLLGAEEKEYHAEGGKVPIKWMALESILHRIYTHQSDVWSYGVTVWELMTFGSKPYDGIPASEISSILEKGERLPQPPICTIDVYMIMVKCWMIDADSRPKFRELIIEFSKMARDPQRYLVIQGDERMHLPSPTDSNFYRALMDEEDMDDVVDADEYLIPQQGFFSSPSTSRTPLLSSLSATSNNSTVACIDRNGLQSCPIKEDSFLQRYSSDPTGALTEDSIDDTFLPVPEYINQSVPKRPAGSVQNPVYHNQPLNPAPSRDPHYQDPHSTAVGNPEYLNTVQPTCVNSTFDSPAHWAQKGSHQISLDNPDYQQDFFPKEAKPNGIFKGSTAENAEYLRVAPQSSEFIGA

IC50 [1] [nM] | IC50 [2] [nM] | IC50 [3] [nM] | IC50 [1, 4] [nM] | IC50 [2, 4] [nM] | SMILES
> 50.1 | 10.1 to 50 | > 50.1 | – | – | C[C@H](CN(C)C)Oc1cc(-c2cnn(C)c2)cc2ncnc(Nc3ccc4nccnc4c3F)c12 [Example 109, (R)-5-((1-(dimethylamino)propan-2-yl)oxy)-N-(5-fluoroquinoxalin-6-yl)-7-(1-methyl-1H-pyrazol-4-yl)quinazolin-4-amine]
< 10 | < 10 | ≤ 10 | – | – | C[C@@H](Oc1cc(N2CC[C@H](C(C)(C)O)C2)cc2ncnc(Nc3ccc4ncccc4c3F)c12)C1COC1 [Example 62, 2—((S)-1-(4-((5-fluoroquinolin-6-yl)amino)-5-((R)-1-(oxetan-3-yl)ethoxy)quinazolin-7-yl)pyrrolidin-3-yl)propan-2-ol]
– | – | > 50.1 | 10.1 to 50 | 10.1 to 50 | C[C@@H](CN(C)C)Oc1cc(-c2cnn(C)c2)cc2ncnc(Nc3ccc4ncccc4c3F)c12 (single isomer, unassigned) [Example 4, (S)-5-((1-(dimethylamino)propan-2-yl)oxy)-N-(5-fluoroquinolin-6-yl)-7-(1-methyl-1H-pyrazol-4-yl)quinazolin-4-amine or (R)-5-((1-(dimethylamino)propan-2-yl)oxy)-N-(5-fluoroquinolin-6-yl)-7-(1-methyl-1H-pyrazol-4-yl)quinazolin-4-amine]
< 10 | < 10 | ≤ 10 | – | – | COc1cn(C)nc1-c1cc(O[C@H](C)CN(C)C)c2c(Nc3ccc4ncccc4c3F)ncnc2c1 [Example 45, (R)-5-((1-(dimethylamino)propan-2-yl)oxy)-N-(5-fluoroquinolin-6-yl)-7-(4-methoxy-1-methyl-1H-pyrazol-3-yl)quinazolin-4-amine]
< 10 | < 10 | ≤ 10 | – | – | C[C@@H](Oc1cc(-c2cnn(CCO)c2)cc2ncnc(Nc3ccc4ncccc4c3F)c12)C1COC1 [Example 51, (R)-2-(4-(4-((5-fluoroquinolin-6-yl)amino)-5-(1-(oxetan-3-yl)ethoxy)quinazolin-7-yl)-1H-pyrazol-1-yl)ethan-1-ol]
10.1 to 50 | < 10 | ≤ 10 | – | – | C[C@H](CN1CCC1)Oc1cc(-c2cnn(C)c2)cc2ncnc(Nc3ccc4ncccc4c3F)c12 [Example 101, (R)-5-((1-(azetidin-1-yl)propan-2-yl)oxy)-N-(5-fluoroquinolin-6-yl)-7-(1-methyl-1H-pyrazol-4-yl)quinazolin-4-amine]
< 10 | < 10 | ≤ 10 | – | – | C[C@H](CN(C)C)Oc1cc(-c2cn(C)nc2OC(F)F)cc2ncnc(Nc3ccc4ncccc4c3F)c12 [Example 118, (R)-7-(3-(difluoromethoxy)-1-methyl-1H-pyrazol-4-yl)-5-((1-(dimethylamino)propan-2-yl)oxy)-N-(5-fluoroquinolin-6-yl)quinazolin-4-amine]
< 10 | < 10 | > 50.1 | – | – | C[C@H](CN(C)C)Oc1cc(-c2cnn(C)c2)cc2ncnc(Nc3cnc4ccccc4c3F)c12 [Example 110, (R)-5-((1-(dimethylamino)propan-2-yl)oxy)-N-(4-fluoroquinolin-3-yl)-7-(1-methyl-1H-pyrazol-4-yl)quinazolin-4-amine]
10.1 to 50 | < 10 | 10.1 to 50 | – | – | CO[C@H]1CCN(c2cc3ncnc(Nc4ccc5ncccc5c4F)c3c(OC(C)CN(C)C)n2)C1 (stereo in doubt) [Example 77, 5—(((S)-1-(dimethylamino)propan-2-yl)oxy)-N-(5-fluoroquinolin-6-yl)-7-((S)-3-methoxypyrrolidin-1-yl)pyrido[4,3-d]pyrimidin-4-amine]
< 10 | < 10 | ≤ 10 | – | – | C[C@H](CN(C)C)Oc1cc(N2CC[C@H](C(C)(C)O)C2)cc2ncnc(Nc3ccc4ncccc4c3F)c12 [Example 73, 2—((S)-1-(5-(((R)-1-(dimethylamino)propan-2-yl)oxy)-4-((5-fluoroquinolin-6-yl)amino)quinazolin-7-yl)pyrrolidin-3-yl)propan-2-ol]
< 10 | < 10 | ≤ 10 | – | – | COCCn1cc(-c2cc(O[C@H](C)C3COC3)c3c(Nc4ccc5ncccc5c4F)ncnc3c2)cn1 [Example 52, (R)—N-(5-fluoroquinolin-6-yl)-7-(1-(2-methoxyethyl)-1H-pyrazol-4-yl)-5-(1-(oxetan-3-yl)ethoxy)quinazolin-4-amine]
– | – | ≤ 10 | < 10 | < 10 | CO[C@@H]1CCN(c2cc(O[C@H](C)CN(C)C)c3c(Nc4ccc5ncccc5c4F)ncnc3c2)C1 (single isomer, unassigned) [Example 87a, 5-(((R)-1-(dimethylamino)propan-2-yl)oxy)-N-(5-fluoroquinolin-6-yl)-7-((R)-3-methoxypyrrolidin-1-yl)quinazolin-4-amine or 5-(((R)-1-(dimethylamino)propan-2-yl)oxy)-N-(5-fluoroquinolin-6-yl)-7-((S)-3-methoxypyrrolidin-1-yl)quinazolin-4-amine]
< 10 | < 10 | ≤ 10 | – | – | C[C@@H](Oc1cc(N2CC[C@H](N(C)C)C2)cc2ncnc(Nc3ccc4ncccc4c3F)c12)C1COC1 [Example 80, 7—((S)-3-(dimethylamino)pyrrolidin-1-yl)-N-(5-fluoroquinolin-6-yl)-5-((R)-1-(oxetan-3-yl)ethoxy)quinazolin-4-amine]
< 10 | < 10 | ≤ 10 | – | – | C[C@H](CN(C)C1CC1)Oc1cc(-c2cnn(C)c2)cc2ncnc(Nc3ccc4ncccc4c3F)c12 [Example 114, (R)-5-((1-(cyclopropyl(methyl)amino)propan-2-yl)oxy)-N-(5-fluoroquinolin-6-yl)-7-(1-methyl-1H-pyrazol-4-yl)quinazolin-4-amine]
< 10 | < 10 | ≤ 10 | – | – | C[C@H](CN(C)C)Oc1cc(N2CC3(COC3)C2)cc2ncnc(Nc3c(F)cc4ncccc4c3F)c12 [Example 39, (R)—N-(5,7-difluoroquinolin-6-yl)-5-((1-(dimethylamino)propan-2-yl)oxy)-7-(2-oxa-6-azaspiro[3.3]heptan-6-yl)quinazolin-4-amine]
10.1 to 50 | 10.1 to 50 | > 50.1 | – | – | CCNC[C@@H](C)Oc1cc(-c2cnn(C)c2)cc2ncnc(Nc3ccc4ncccc4c3F)c12 [Example 102, (R)-5-((1-(ethylamino)propan-2-yl)oxy)-N-(5-fluoroquinolin-6-yl)-7-(1-methyl-1H-pyrazol-4-yl)quinazolin-4-amine]
< 10 | < 10 | ≤ 10 | – | – | C[C@H](CN(C)C)Oc1cc(-c2cnn(C)c2)cc2ncnc(Nc3c(F)cc4ncccc4c3F)c12 [Example 106, (R)—N-(5,7-difluoroquinolin-6-yl)-5-((1-(dimethylamino)propan-2-yl)oxy)-7-(1-methyl-1H-pyrazol-4-yl)quinazolin-4-amine]
< 10 | < 10 | ≤ 10 | – | – | C[C@H](CN(C)C)Oc1cc(N2CC3(COC3)C2)cc2ncnc(Nc3ccc4ncccc4c3F)c12 [Example 71, (R)-5-((1-(dimethylamino)propan-2-yl)oxy)-N-(5-fluoroquinolin-6-yl)-7-(2-oxa-6-azaspiro[3.3]heptan-6-yl)quinazolin-4-amine]

SMILES | IC50 [1] [nM] | IC50 [2] [nM] | IC50 [3] [nM] | IC50 [1, 4] [nM] | IC50 [2, 4] [nM]
C[C@H](Oc1cc(-c2cnn(C)c2)cc2ncnc(Nc3ccc4ncccc4c3F)c12)[C@@H]1CCCN1C (single isomer, unassigned) [Example 145] | – | – | > 50.1 | 10.1 to 50 | 10.1 to 50
